From ChEMBL document CHEMBL5543140 (J Med Chem, 2024) come the findings set out here.

Structures are written as SMILES. Calls of active or inactive are those of the source. No cut-off for these calls is given here.

The target in data set [1] is T1, 5-hydroxytryptamine receptor 2A (Homo sapiens, UniProt P28223). In words: Displacement of [3H]LSD from human 5-HT2A receptor expressed in HEK293 cell membrane incubated for 90 mins by microbeta liquid scintillation counting method. Type of data set: cell membranes. Background: In a radioligand displacement assay an active substance lowers the binding of a labelled ligand.

The target of data set [2] is 5-hydroxytryptamine receptor 2B (Homo sapiens, UniProt P41595). Kind of data set: Displacement of [3H]LSD from human 5-HT2B receptor expressed in HEK293 cell membrane incubated for 90 mins by microbeta liquid scintillation counting method. Type of data set: cell membranes.
Data set [3] has as its target T2, 5-hydroxytryptamine receptor 2C (Homo sapiens, UniProt P28335).
T2 sequence (P28335 whole entry): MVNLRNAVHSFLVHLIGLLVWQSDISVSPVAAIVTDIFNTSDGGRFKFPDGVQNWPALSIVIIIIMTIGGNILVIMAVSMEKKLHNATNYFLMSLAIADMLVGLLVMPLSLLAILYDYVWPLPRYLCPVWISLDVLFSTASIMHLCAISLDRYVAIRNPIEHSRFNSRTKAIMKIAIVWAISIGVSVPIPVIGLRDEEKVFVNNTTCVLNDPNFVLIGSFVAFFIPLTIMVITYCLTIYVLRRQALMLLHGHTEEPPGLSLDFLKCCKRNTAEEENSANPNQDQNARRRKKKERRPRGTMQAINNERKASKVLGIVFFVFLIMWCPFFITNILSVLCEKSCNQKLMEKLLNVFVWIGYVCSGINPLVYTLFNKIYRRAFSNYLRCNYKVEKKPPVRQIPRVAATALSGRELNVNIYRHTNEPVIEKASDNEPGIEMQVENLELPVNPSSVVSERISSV
In words: Displacement of [3H]LSD from human 5-HT2C receptor expressed in HEK293 cell membrane incubated for 90 mins by microbeta liquid scintillation counting method. Type of data set: cell membranes.

Data set [4] has as its system Mus musculus. In words: Psychedelic effect in C57BL/6J mouse assessed as number of head-twitch responses by visual observation at 3 mg/kg, po measured for 3 mins at 5 to 25 min. Type of data set: functional. The note with it: 0.05 h.
Data set [5] concerns Mus musculus. Kind of data set: Psychedelic effect in C57BL/6J mouse assessed as number of head-twitch responses by visual observation at 3 mg/kg, po measured for 3 mins at 160 to 170 min. Type of data set: functional. To be noted: 0.05 h.
Data set [6] has as its target T1, 5-hydroxytryptamine receptor 2A. In words: Agonist activity at human 5-HT2A receptor expressed in HEK293 cells assessed as IP2 production measured after 30 mins incubation by HTRF assay. Type of data set: functional, cell-based.
Data set [7] can be described thus: Lipophilicity, logP of the compound. Type of data set: physicochemical. To be noted: octanol/water.
Data set [8] in a line: Metabolic stability in Sprague-Dawley rat liver microsomes assessed as deuteration effect measured upto 120 mins by LC-MS/MS analysis. Type of data set: ADME, Microsome. The note with it: 2 h. (Microsomes from liver hold many membrane-bound enzymes, among them those of drug oxidation.)
A short description of data set [9]: Metabolic stability of the compound assessed as recombinant human MAO-mediated oxidative metabolism by measuring compound remaining measured upto 120 mins by LC-MS/MS analysis. Type of data set: ADME. The note with it: 2 h.
The target of data set [10] is T1, 5-hydroxytryptamine receptor 2A. In words: Agonist activity at human 5-HT2A receptor expressed in HEK293 cells assessed as maximal IP2 production measured after 30 mins incubation by HTRF assay relative to control. Type of data set: functional, cell-based. To be noted: filed as agonist.
A short description of data set [11]: Chemical stability of the compound in buffer solution at pH 1 to 6.8 measured for 5 days. The note with it: pH 1, 120 h, time 5 day. Type of data set: physicochemical.
The nature of data set [12]: Chemical stability of the compound in water measured for 5 days. Type of data set: physicochemical. To be noted: buffer, 120 h; time 5 day.
The test system of data set [13] is Mus musculus. In words: Psychedelic effect in C57BL/6J mouse assessed as number of head-twitch responses by visual observation at 3 to 30 mg/kg, po. Type of data set: functional, organism-based. To be noted: dose 3-30 mg/kg.

T1 sequence (P28223 whole entry): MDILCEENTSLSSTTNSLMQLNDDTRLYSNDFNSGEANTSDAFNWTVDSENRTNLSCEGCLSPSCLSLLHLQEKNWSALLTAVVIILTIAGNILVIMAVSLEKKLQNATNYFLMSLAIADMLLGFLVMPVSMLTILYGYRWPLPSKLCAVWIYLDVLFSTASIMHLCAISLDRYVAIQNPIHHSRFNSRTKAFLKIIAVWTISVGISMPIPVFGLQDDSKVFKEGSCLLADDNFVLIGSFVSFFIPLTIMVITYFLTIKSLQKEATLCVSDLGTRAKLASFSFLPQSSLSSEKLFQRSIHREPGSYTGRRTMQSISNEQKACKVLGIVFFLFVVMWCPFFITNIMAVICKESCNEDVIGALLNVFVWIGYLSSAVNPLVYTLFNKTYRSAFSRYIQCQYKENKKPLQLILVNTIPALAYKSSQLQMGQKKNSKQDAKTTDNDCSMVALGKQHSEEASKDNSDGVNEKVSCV
Chain of 5-hydroxytryptamine receptor 2B (P41595 whole entry): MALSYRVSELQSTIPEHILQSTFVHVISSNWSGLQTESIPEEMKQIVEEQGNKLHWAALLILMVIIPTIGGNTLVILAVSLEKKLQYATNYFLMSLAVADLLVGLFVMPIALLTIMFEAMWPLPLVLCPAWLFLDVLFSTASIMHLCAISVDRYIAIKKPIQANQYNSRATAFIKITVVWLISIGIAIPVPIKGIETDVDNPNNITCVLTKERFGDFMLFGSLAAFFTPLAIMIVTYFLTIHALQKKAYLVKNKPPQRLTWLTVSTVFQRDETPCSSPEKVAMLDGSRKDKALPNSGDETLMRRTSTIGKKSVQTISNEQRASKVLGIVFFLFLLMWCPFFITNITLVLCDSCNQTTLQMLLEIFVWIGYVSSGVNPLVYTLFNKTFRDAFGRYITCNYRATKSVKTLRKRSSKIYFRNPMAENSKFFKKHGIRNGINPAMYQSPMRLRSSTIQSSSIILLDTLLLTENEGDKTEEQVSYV

For `COc1cc(SSC(F)(F)F)c(OC)cc1CCN.Cl`, the values for the Ki in [1] (read-out: Ki), in data set [2] and in data set [3] were 78 nM, 66 nM and 67 nM, respectively. For the same compound, the Activity in data set [4] came to 1.8; in data set [5], 3.4.
Consider `COc1cc(SCCC(F)F)c(OC)cc1CCN.Cl`, for which the Ki in [1] (read-out: Ki) stood at 23 nM; in data set [2] it was 6.8 nM; in [3], 8.9 nM. Also, the figures for the Activity in data set [4] and in [5] were 5 and 2.6, respectively.
As for `COc1cc(C2CCCC2)c(OC)cc1CCN`, the Ki in data set [1] (read-out: Ki) was 134 nM.
For the compound `COc1cc([S+]([O-])C(F)F)c(OC)cc1CCN.Cl` (configuration not stated), the Ki was 27 nM in data set [1] (read-out: Ki), 26 nM in data set [2] and 82 nM in data set [3]. Moreover, the Activity in data set [4] amounted to 3; in [5] it was 4.
Turning to `COc1cc(S(=O)(=O)C(F)F)c(OC)cc1CCN.Cl`, the Ki in data set [1] (read-out: Ki) was determined as 11 nM; in [2], 20 nM; in data set [3], 83 nM. In addition, the Activity in [4] is 5; in [5], 1.7.
For the compound `COc1cc(S(=O)(=O)C(C)(C)C)c(OC)cc1CCN`, in data set [6] (read-out: EC50), the concentration giving a half-maximal response (EC50) (commonly the concentration that produces a half-maximal response) was 530 nM.
On to `COc1cc(N(C(C)C)C(C)C)c(OC)cc1CCN.Cl.Cl`, for which the EC50 entry in data set [6] (hek293) is recorded as “Not Active”. In data set [7], the logP (usually the decadic logarithm of the partition coefficient of the neutral form, usually between octanol and water) amounted to 2.7.
Regarding `COc1cc(OCCC(F)(F)F)c(OC)cc1CCN`, in data set [1] (read-out: Ki), the Ki was found to be 477 nM.
As for `COc1cc(C[C@H](C)N)c(O)cc1SC.Cl`, the Stability entry in [8] and in [9] was “Stable” in each case.
With `COc1cc(SSC(C)(C)C)c(OC)cc1CCN.Cl`, the Ki in data set [1] (read-out: Ki) turned out to be 59 nM; in data set [2], 10 nM; in data set [3], 26 nM. The values for the Activity in data set [4] and in [5] were 0.6 and 4.8, respectively.
Consider `Cl.[2H]C([2H])([2H])Oc1cc(SC)c(OC([2H])([2H])[2H])cc1CCN`, for which the Stability entry in [8] and in data set [9] was “Stable” each time.
Regarding `COc1cc(SC(F)(F)F)c(OC)cc1CC(C)N` (configuration not stated), in data set [6] (read-out: EC50), the concentration giving a half-maximal response (EC50) was found to be 5.4 nM. The Emax (commonly the greatest response seen or fitted, relative to the assay's reference) in data set [10] amounted to 91%.
Take `COc1cc([S+]([O-])C(F)(F)F)c(OC)cc1CCN.Cl` (configuration not stated): the Ki in data set [1] (read-out: Ki) was determined as 19 nM; in data set [2], 6.5 nM; in [3], 21 nM. In addition, the Activity was found to be 17 in [4] and 18 in data set [5].
As for `COc1cc(SC)c(OC)cc1C[C@@H](C)N.Cl`, the Stability entry in data set [8] and in data set [9] was “Stable” in each case.
For `COc1cc(OCCC(F)F)c(OC)cc1CCN`, in [1] (read-out: Ki), the Ki is 387 nM.
`Cl.[2H]C([2H])([2H])Oc1cc(SC)c(OC([2H])([2H])[2H])cc1C[C@H](C)N`: the Stability entry in [8] and in data set [9] was “Stable” in each case.
Consider `Cl.[2H]C([2H])([2H])Oc1cc(C(F)(F)F)c(OC([2H])([2H])[2H])cc1CCN`, for which the Stability entry in [8] and in data set [9] was “Stable” each time.
Turning to `Cl.[2H]C([2H])([2H])Oc1cc(C2CCCC2)c(OC([2H])([2H])[2H])cc1CCN`, the Stability result in [8] and in data set [9] was “Stable” in each case.
As to `COc1cc(C(C)=O)c(OC)cc1CCN.Cl`, the EC50 result in [6] (hek293) is “Not Active”. The compound also came in with a logP in data set [7] of 0.42.
As for `COc1cc(S(=O)(=O)CF)c(OC)cc1CCN.Cl`, the Ki in data set [1] (read-out: Ki) was 5.9 nM; in data set [1] (read-out: pKi (converted)) it was 6.03 nM; in data set [2] it was 28 nM; in data set [3], 26 nM. In addition, the Activity was found to be 1.7 in data set [4] and 2.3 in [5].
Regarding `COc1cc(C(=O)C(C)(C)C)c(OC)cc1CCN`, in data set [6] (read-out: EC50), the 50% effective concentration (EC50) was 850 nM. The logP in [7] stood at 2.34.
In the case of `Cl.[2H]C([2H])(N)Cc1cc(OC)c(SC)cc1OC`, the Stability result in [8] and in data set [9] was “Stable” in each case.
On to `COc1cc(SCC#N)c(OC)cc1CCN`, for which the Ki in [1] (read-out: Ki) worked out at 36 nM. The EC50 in [6] (read-out: EC50) turned out to be 6.1 nM. In addition, the maximum response (Emax) in data set [10] was 77%.
With `C#CCSc1cc(OC)c(CCN)cc1OC`, in data set [6] (read-out: EC50), the concentration for a half-maximal effect (EC50) is 0.67 nM. Further, in data set [10], the Emax came out at 100%.
Turning to `COc1cc(S(=O)(=O)C(F)(F)F)c(OC)cc1CCN.Cl`, the Ki stood at 1.9 nM in data set [1] (read-out: Ki), 8.4 nM in [2] and 13 nM in [3]. Also, the results for the Activity in data set [4] and in data set [5] were 26 and 28, respectively.
With `COc1cc(CCN)cc(OC)c1SC(F)(F)F`, in [1] (read-out: Ki), the Ki stood at 45 nM. For the same compound, the 50% effective concentration (EC50) in data set [6] (read-out: EC50) stood at 41 nM. The Emax in data set [10] was 96%.
For the compound `COc1cc(SC(F)(F)F)c(OC)cc1CCN.Cl`, the Activity came to 21 in [4] and 30 in [5]. Further, the Stability entry in [11] and in [12] was “Stable” in each case.
On to `C#CCCCSc1cc(OC)c(CCN)cc1OC`, for which, in data set [1] (read-out: Ki), the Ki stood at 2.3 nM. Further, in data set [6] (read-out: EC50), the EC50 was determined as 1.8 nM. In addition, the Emax in [10] was 78%.
In the case of `COc1cc(SC(C)(C)C)c(OC)cc1CCN`, the concentration for a half-maximal effect (EC50) in data set [6] (read-out: EC50) turned out to be 150 nM. Also, the result in data set [13] was inactive.
Take `Cl.[2H]C([2H])([2H])C(c1cc(OC)c(CCN)cc1OC)(C([2H])([2H])[2H])C([2H])([2H])[2H]`: the Stability result in [8] and in [9] was “Stable” throughout.
Regarding `COc1cc(SCCCCF)c(OC)cc1CCN`, the Ki in data set [1] (read-out: Ki) was 47 nM.
In the case of `COc1cc(OCCCF)c(OC)cc1CCN`, the Ki in data set [1] (read-out: Ki) is 1640 nM; in [1] (read-out: pKi (converted)), 1700 nM.
`Cl.[2H]C([2H])([2H])Oc1cc(C(C)(C)C)c(OC([2H])([2H])[2H])cc1CCN`: the Stability result in data set [8] and in [9] was “Stable” in each case.
With `Cl.[2H]C([2H])(N)Cc1cc(OC)c(C(F)(F)F)cc1OC`, the Stability result in data set [8] and in data set [9] was “Stable” each time.
On to `COc1cc(SCC(F)(F)C(F)F)c(OC)cc1CCN.Cl`, for which the Ki in data set [1] (read-out: Ki) is 34 nM; in data set [1] (read-out: pKi (converted)) it was 38 nM; in [2], 4.5 nM; in data set [3], 11 nM. For the same compound, the results for the Activity in [4] and in data set [5] were 3.1 and 5.6, respectively.
For `COc1cc(SCCCF)c(OC)cc1CCN`, the Ki in data set [2] is 6.2 nM; in data set [3], 6.9 nM. In addition, the figures for the Activity in data set [4] and in data set [5] were 7.4 and 4.7, respectively.
Regarding `Cl.[2H]C([2H])([2H])Oc1cc(SC)c(OC([2H])([2H])[2H])cc1C[C@@H](C)N`, the Stability result in [8] and in [9] was “Stable” each time.
As for `COc1cc(SCCC(F)(F)F)c(OC)cc1CCN.Cl`, the Ki was determined as 10 nM in data set [1] (read-out: Ki), 5.5 nM in [2] and 11 nM in [3]. In addition, the Activity in data set [4] is listed as 3.3; in data set [5], 6.1.
As for `COc1cc(SCC(F)F)c(OC)cc1CCN`, the Ki in data set [1] (read-out: Ki) was determined as 146 nM.
On to `COc1cc(P(C)(C)=O)c(OC)cc1CCN.Cl`, for which the concentration giving a half-maximal response (EC50) entry in data set [6] (hek293) is on record as “Not Active”. In addition, in data set [7], the logP was -1.67.
On to `COc1cc(SC(F)(F)F)c(OC)cc1CCNCC1CC1`, for which the Ki in data set [1] (read-out: Ki) turned out to be 8.9 nM. For the same compound, the EC50 in data set [6] (read-out: EC50) came out at 48 nM. Also, the Emax in data set [10] turned out to be 63%. Moreover, the outcome in data set [13] was inactive.
On to `COc1cc(SC(F)F)c(OC)cc1CCN.Cl`, for which the values for the Ki in data set [1] (read-out: pKi (converted)), in [2] and in data set [3] were 6.46 nM, 24 nM and 16 nM, respectively. Besides, the Activity is 33 in data set [4] and 17 in [5].
